Laboratory results as given in patent US20110082204A1, “N-alkylcarbonyl-amino acid ester and N-alkylcarbonyl-amino lactone compounds and their use” (priority 2006, published 2011).
Each block holds one molecule with its values, some of them ahead of it.

Assays:
philtrum skin = test: Cooling sensation after ointment applied to philtrum skin; assay type: in vivo, human; conditions: for duration of cooling (FIG. 1): 40 to 70 mg of 1% wt/vol (10 mg/ml) ointment on skin above the upper lips; for Duration of cooling, Philtrum Skin: 5 mg/ml in Aquaphor ointment on philtrum skin
Description: A reliable place for topical application is the skin above the upper lip (above the vermilion border of the lips), on the philtrum, lateral to the philtrum until the nasolabial folds, and on the lower nostrils (subnasale). This part of the face is known to be densely innervated with cold receptors, second only to the surfaces of the eyeball and anogenitalia.
The intensity of the subjective skin sensation is rated as 0, 1, 2 or 3 with: 0 as no change; 1 as slight coolness, cold, or tingling; 2 as clear-cut signal of coolness, cold, or tingling; and 3 as robust cooling or cold. The intervals for recording sensations are 5 to 10 minutes, until two successive zeroes are obtained. The results (shown in FIG. 1) are averaged values of 4 to 6 separate trials in the same individual. The data are plotted using SigmaPlot® (Systat Software, Point Richmond Calif.) and a smoothing function with a negative exponential was used for analysis and statistical fit of the results. Confirmatory trials of cooling action of the long-acting NACE compounds were obtained in 2 to 4 individuals but not quantified for some because of the large number of chemicals that were evaluated
(§1) The onset of drug action is taken as the time to reach 2 units of coolness intensity, and offset of drug action is the time when coolness intensity drops below 2, after previously surpassing 2 units. The duration of cooling action is defined as the offset time minus the onset time. […] The quality of the sensation is noted, for example, as pure refreshing coolness, or if the sensation is accompanied by irritation (stinging or burning). The quality of the sensation is not rated for intensity.
For bioassay on the skin, approximately 30 mg was stirred and dissolved in 3 g of warm liquid Aquaphor® ointment to a yield 5 to 10 mg/ml (0.5% to 1.0 wt/vol) ointment. After cooling, 40 to 70 mg of the solid ointment was placed on the tip of a plastic stick and applied to the skin above the upper lip, on the philtrum, and lateral to the philtrum, up to the nasolabial folds, of test subjects and the onset and duration of cooling sensations noted.
The intensity of the subjective skin sensation was rated as 0, 1, 2 or 3 with: 0 as no change; 1 as slight coolness, cold, or tingling; 2 as clear signal of coolness, cold, or tingling; and 3 as robust cooling or cold. The intervals for recording sensations were 5 to 10 minutes, until two successive zeroes were obtained. The results (shown in FIG. 1) are averaged values of 4 to 6 separate trials in the same individual. The data are plotted using SigmaPlot® (Systat Software, Point Richmond, Calif., USA) and a smoothing function with a negative exponential was used for analysis and statistical fit of the results.
as §1, with “was” for “is”, “was also noted: such” for “is noted, for example,”
For the results in FIG. 1, the test compounds were singly applied to the skin above the upper lips at a 40 to 70 mg dose of a 1% wt/vol (10 mg/ml) ointment. Subsequently, for the results shown in Table 3, the test dose on the philtrum was reduced to a 0.5% wt/vol (5 mg/ml) ointment. The reason for choosing a lower dose was to increase the number of trials per individual and to have a reduced chance of substances accumulating in the skin.

eyelids/ocular surface = test: Cooling after wiping closed eyelids with a towelette; assay type: in vivo, human; conditions: for Duration of cooling, Eyelids/Ocular Surface: eye wipes, 1 mg/ml in 5%-95% v/v ethanol-distilled water
Method: A second method of testing was to take a towelette saturated with a test solution of the cooling agent and to wipe the towelette over the dosed eyelids. The presence or absence of cooling (or irritanty, if applicable) sensations was then recorded at 10 minute intervals until the cessation of coolness in two successive intervals.
(§2) For testing of cooling compounds delivered to the eyelids with a towelette, the following procedures were used in the experiments of Table 3 and in Study 5 and 6. Three ml of liquid suspension or solution in distilled water was added to a 0.4 g cotton rectangle (50 mm×60 mm) (CS-being, Daisan Cotton, Japan) and individually sealed with a vaccuum apparatus (Foodsaver®, Jarden Corp.). Samples were stored in the freezer or refrigerator and thawed to room temperature before use. Wiping with the cotton pad delivers 40 to 45 μl of liquid composition to the eyelids ([…] to 22 μl per eye). So, if the concentration of the test substance was 1 mg/ml, the dose delivered to both eyes is a total of ˜40 to […], or ˜20 μg per eye. This method allows a reliable delivery of test substances because the dissolved or suspended particles in solution are evenly dispersed on the cotton pad in an excess volume of liquid. The presence or absence of cooling sensations was noted as being present or absent at 5 to 10 min intervals until no coolness was noticeable in two successive test intervals. Only the duration of cooling on the ocular surface was recorded, without an attempt to quantify the intensity of the sensation.

[1] = test system: dorsal surface of the tongue; test: Tongue cooling threshold, impregnated filter paper (Watson et al.); assay type: in vivo, human; conditions: summary comparison
Method: Watson et al. (U.S. Pat. No. 4,178,459) tested the properties of N-substituted p-menthane carboxamides. However, the branched chain alkylesters such as the isopropyl analogs described here in the Gly and D-Ala configuration of Formula 1 were never synthesized by Watson et al. Bioactivity of the Watson et at compounds were tested by putting filter paper (1×1 cm), impregnated with a known amount of compound, onto the dorsal surface of the tongue of the volunteer test subject. After 30 seconds, the subject was required to report presence or absence of a cooling effect. […] The average threshold of (−)-menthol for 6 subjects was 0.25 μg, but there was a 100-fold variation in individual sensitivity. The potencies of coolness signals detected from the dorsal surface of the tongue are not correlated to skin sensations of coolness may be confounded by gustatory, olfactory, and other variables, as well as by dilution from saliva.

periorbital skin = test: Ointment applied to periorbital skin: coolness, eye irritancy, alerting (Study 3); assay type: in vivo, human
Description: The ointment was also applied to the periorbital skin (upper and lower eyelids and on skin adjacent to the lateral canthus) for tests of irritancy near the eyes, and the subject is asked if irritation is present or absent. The intensity of the eye sensation is not rated.
For tests of irritancy near the eyes in Study 3 and 4, the ointment was applied to the periorbital skin (upper and lower eyelids and on skin adjacent to the lateral canthus), and the subject asked if irritation is present or absent. The intensity of the eye sensation is not rated, but just noted as being present or absent
A 1% preparation of 2-isopropyl-5-methyl-cyclohexanecarbonyl D-alanine methyl ester in Aquaphor® ointment was applied bilaterally to the periorbital area of four individuals. […] This experiment was then repeated three days later in the evening with the same individuals whose occupations required daylong activities before a computer screen.

[2] = test system: dorsal surface of the tongue; conditions: threshold amount producing cooling on tongue of human volunteers; values from Watson US 04178459; cited from earlier work
[3] = Log P of tested compounds; assay type: physicochemical
sleepiness and fatigue = test: Study 4: eye wipes against sleepiness and fatigue; assay type: in vivo, human; conditions: for onset and intensity of awakening effect: eye wipes, compared with the other analogs
Method: as §2
Three high-powered business executives who regularly spent long hours at the negotiating tables or at meetings felt “burnt out” by their professional activities and frequently felt tired and sleepy-eyed in the social arena. They volunteered to try eye wipes containing 1.0 mg/ml of (R)-2-[((1R,2S,5R)-2-isopropyl-5-methyl-cyclohexanecarbonyl)-amino]-propionic acid isopropyl ester (D-Ala-OiPr, No. 1, in table 1) to see if the eye wipes will refresh and awaken their interest during meetings. […] They became alert and vigilant and more pro-active in their social milieu.

allergic conjunctivitis = test: Study 5: eye wipes in allergic conjunctivitis; assay type: in vivo, human
Method: as §2
A laboratory scientist suffered from seasonal allergic conjunctivitis. This condition was severely aggravated when […] started doing experiments with laboratory animals (rats and mice) and […] became sensitized to the associated allergens. The conjunctivitis was not relieved by oral or topical eye drop antihistamines and the subject was reluctant to consider the use of anti-inflammatory steroid ointments. Upon examination, their eyes were blood-shot and watery and they kept rubbing their eyelids with their fingers even though they knew this action may further aggravate the itch and discomfort. They volunteered to try eye wipes containing 1.0 mg/ml of (R)-2-[((1 R,2S,5R)-2-isopropyl-5-methyl-cyclohexanecarbonyl)-amino]-acetic isopropyl ester (Gly-OiPr, No. 2, in table 1). The relief of itch and discomfort was obtained within 5 minutes and lasted for at least four hours.

periorbital pain = test: Study 6: eye wipes in persistent periorbital pain; assay type: in vivo, human; conditions: eye wipes 1.0 mg/ml, one patient, three occasions
Method: as §2
A person suffered from “dry eyes” or keratoconjunctivitis sicca which was managed by artificial tears and eye drops containing lubricants. […]

face = test: Study 2: towelette used to wipe the face in hot weather; assay type: in vivo, human; conditions: for duration of pleasant cooling sensations: 10% propylene glycol/90% water
Method: 2-Isopropyl-5-methyl-cyclohexanecarbonyl D-alanine methyl ester was dissolved in warm 10% propylene-glycoV90% distilled water solution to give a concentration of either 0.1 or 0.5% wt/vol (1 or 5 mg/mL). Six to seven milliliters of these solutions were then applied with a pipette onto a paper napkin (Luncheon Napkins, Kirkland Signature brand from Costco, Inc.) The napkin was 1-ply with a 30.4×29.5 cm dimension. Each napkin was then hermetically sealed in a plastic envelope (Foodsaver by Tilia). On two separate occasions involving golfing trips to Los Angeles, Calif., USA, where air temperatures exceeded […] (90° F.), these towelettes were used to wipe the face. Pleasant cooling sensations were obtained that lasted for about 10 minute for the 0.1% concentration towelette and about 60 minutes for the 0.5% towelette.

[4] = eye wipes 1.0 mg/ml, one subject
[5] = 1% in Aquaphor ointment, periorbital area, four individuals

Compound: CC1CCC(C(C)C)C(O)C1 (single isomer, unassigned; (-)) [(−)-menthol, reference compound]
duration of cooling (FIG. 1) (philtrum skin): 0.3 h
Cooling on skin of face (philtrum skin; summary comparison): yes
“perfect” cooling experience (philtrum skin; summary comparison): no
Acts for >1 hour at 1 mg/ml (eyelids/ocular surface; 1 mg/ml): no
Cooling on tongue [1]: yes
Eye Irritancy (periorbital skin; summary comparison): yes
Threshold tongue [2]: 0.25 µg

Compound: CC(C)OC(=O)[C@@H](C)NC(=O)[C@@H]1C[C@H](C)CC[C@H]1C(C)C [D-Ala iPr Ester, (R)-2-[((1R,2S,5R)-2-isopropyl-5-methyl-cyclohexanecarbonyl)-amino]-propionic acid isopropyl ester]
Duration of cooling, Philtrum Skin (philtrum skin): 34 min
Duration of cooling, Eyelids/Ocular Surface (eyelids/ocular surface): 360 min
logP [3]: 3.7
effect on sleepiness and fatigue (sleepiness and fatigue; eye wipes 1.0 mg/ml, three executives): the sense of sleepiness and fatigue was reduced for the next several hours

Compound: CC(C)OC(=O)CNC(=O)[C@@H]1C[C@H](C)CC[C@H]1C(C)C [Gly iPr Ester, (R)-2-[((1R,2S,5R)-2-isopropyl-5-methyl-cyclohexanecarbonyl)-amino]-acetic acid isopropyl ester]
Duration of cooling, Philtrum Skin (philtrum skin): 27 min
Duration of cooling, Eyelids/Ocular Surface (eyelids/ocular surface): 300 min
logP [3]: 3.3
duration of relief of itch and discomfort (allergic conjunctivitis; [4]): at least four
time to relief of itch and discomfort (allergic conjunctivitis; [4]): ≤ 5 min
over-all itchiness and redness (allergic conjunctivitis; wipes used as needed for three days): over-all itchiness and redness were reduced significantly
relief of periorbital pain (periorbital pain): immediate relief

More lines, main results first:

logP [3]: 3.1
Compound: CCOC(=O)[C@@H](C)NC(=O)[C@@H]1C[C@H](C)CC[C@H]1C(C)C [D-Ala Et Ester, (R)-2-[((1R,2S,5R)-2-isopropyl-5-methyl-cyclohexanecarbonyl)-amino]-propionic acid ethyl ester]
Duration of cooling, Philtrum Skin (philtrum skin): 103 min
duration of cooling (FIG. 1) (philtrum skin): 2.4 h
Duration of cooling, Eyelids/Ocular Surface (eyelids/ocular surface): 180 min
onset and intensity of awakening effect (sleepiness and fatigue): faster onset and more intense awakening effect

logP [3]: 2.8
Compound: COC(=O)[C@@H](C)NC(=O)[C@@H]1C[C@H](C)CC[C@H]1C(C)C [D-Ala Me Ester, (R)-2-[((1R,2S,5R)-2-isopropyl-5-methyl-cyclohexanecarbonyl)-amino]-propionic acid methyl ester]
Duration of cooling, Philtrum Skin (philtrum skin): 77 min
duration of cooling (FIG. 1) (philtrum skin): 1.9 h
Duration of cooling, Eyelids/Ocular Surface (eyelids/ocular surface): 120 min
duration of pleasant cooling sensations (face; 0.1% wt/vol (1 mg/mL) towelette): about 10 minute
eye irritation (face; 0.1 or 0.5% towelette): No eye irritation was observed
duration of pleasant cooling sensations (face; 0.5% wt/vol (5 mg/mL) towelette): about 60 minutes
Onset of coolness on the skin (periorbital skin; [5]): 1 min
duration of alerting effect (periorbital skin; [5]): about one
duration of coolness on the skin (average) (periorbital skin; [5]): 30 min
irritation of skin / eye surfaces (periorbital skin; ointment on periorbital area): No irritation of the eye surfaces was noted
onset and intensity of awakening effect (sleepiness and fatigue): faster onset and more intense awakening effect
